Data on seven molecules can be found in paper PMC10763615, “Identification and engineering of potent cyclic peptides with selective or promiscuous binding through biochemical profiling and bioinformatic data analysis” (RSC Chemical Biology, 2023).

SMILES strings stand for the structures. Positions of bridges follow the written chain, without caps; N, C: chain ends. Residues, ends and D or L forms follow the SMILES beside them.

Holding throughout (assay type): binding
In assay [1] the target is T1, FGF-R4 ECD (Homo sapiens, UniProt P22455).
T1 construct: DNA constructs for the extracellular domain (ECD) of human FGF-; HPC4 (C); made in house; host or cells: HEK 293-6E
T1 sequence (P22455 22-369 limits assumed): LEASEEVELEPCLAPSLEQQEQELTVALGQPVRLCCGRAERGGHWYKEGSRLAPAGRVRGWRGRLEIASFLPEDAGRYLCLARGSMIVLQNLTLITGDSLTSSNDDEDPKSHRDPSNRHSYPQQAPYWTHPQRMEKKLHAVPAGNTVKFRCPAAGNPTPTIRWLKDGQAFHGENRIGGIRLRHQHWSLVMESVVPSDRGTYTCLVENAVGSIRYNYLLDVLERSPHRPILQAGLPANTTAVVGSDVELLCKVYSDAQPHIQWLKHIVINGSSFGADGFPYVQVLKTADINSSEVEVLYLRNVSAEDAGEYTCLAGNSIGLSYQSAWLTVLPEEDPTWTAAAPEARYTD
Briefly: single concentration BLI of crude peptides. As to conditions: crude T18 selection 1 (1:1:1) peptides, single concentration BLI (Table S4); read-out: KD (4). A digest of the protocol:
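Biotinylated FGF-R ECD on streptavidin biosensors was dipped into ~1 μM crude peptide in PBS pH7.4 with 0.05% Tween-20 and 0.01% BSA for association, then into buffer for dissociation, and followed by BLI. Fitted KD values were adjusted for peptide concentration measured by UPLC-CAD.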

In assay [2] the target is T2, FGF-R3C ECD (Homo sapiens, UniProt P22607).
T2 sequence (P22607 23-375 limits assumed): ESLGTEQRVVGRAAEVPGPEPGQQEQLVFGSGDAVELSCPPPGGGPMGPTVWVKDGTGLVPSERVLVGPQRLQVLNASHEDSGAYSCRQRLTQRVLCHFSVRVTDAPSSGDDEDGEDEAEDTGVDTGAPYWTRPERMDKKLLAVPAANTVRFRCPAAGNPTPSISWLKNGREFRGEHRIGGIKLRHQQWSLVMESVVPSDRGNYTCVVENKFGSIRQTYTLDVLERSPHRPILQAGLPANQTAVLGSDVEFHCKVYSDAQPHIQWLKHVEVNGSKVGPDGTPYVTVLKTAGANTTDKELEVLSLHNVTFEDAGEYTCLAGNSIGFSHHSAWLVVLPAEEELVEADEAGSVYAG
In words: biochemical. Also on record: DNA constructs for the extracellular domain (ECD) of human FGF-; HPC4 (C); made in house; host or cells: HEK 293-6E. The method, boiled down: (§1)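 Streptavidin biosensors carrying biotinylated FGF receptor ECD were immersed in peptide (~1 μM for crude single-point runs, a concentration series for purified peptides) and then in peptide-free buffer. KD was obtained by fitting the BLI association and dissociation curves.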

In assay [3] the target is T3, FGF-R1C ECD (Homo sapiens, UniProt P11362).
T3 sequence (P11362 22-376 limits assumed): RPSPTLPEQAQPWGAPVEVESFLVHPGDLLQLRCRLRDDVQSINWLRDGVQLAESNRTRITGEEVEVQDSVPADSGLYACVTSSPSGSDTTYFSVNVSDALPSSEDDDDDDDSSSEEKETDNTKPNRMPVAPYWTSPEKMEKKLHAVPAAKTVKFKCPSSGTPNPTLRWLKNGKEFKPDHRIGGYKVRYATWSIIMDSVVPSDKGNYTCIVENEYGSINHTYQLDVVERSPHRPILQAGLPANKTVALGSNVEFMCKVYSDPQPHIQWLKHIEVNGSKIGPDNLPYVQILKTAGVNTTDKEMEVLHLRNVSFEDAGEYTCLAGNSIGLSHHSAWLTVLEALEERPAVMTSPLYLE
In words: biochemical. More on the design: DNA constructs for the extracellular domain (ECD) of human FGF-; HPC4 (C); made in house; host or cells: HEK 293-6E. The method, boiled down: as §1

On to `CSCC[C@H](NC(C)=O)C(=O)N[C@H]1CSSC[C@@H](C(=O)NCC(=O)N[C@@H](CO)C(=O)NCC(=O)N[C@@H](CO)C(=O)N[C@@H](CC(=O)O)C(=O)N[C@@H](Cc2ccc(O)cc2)C(=O)N[C@@H](CCCCN)C(=O)N[C@@H](CC(=O)O)C(=O)N[C@@H](CC(=O)O)C(=O)N[C@@H](CC(=O)O)C(=O)N[C@@H](CC(=O)O)C(=O)N[C@@H](CCCCN)C(N)=O)NC(=O)[C@H](Cc2ccc(O)cc2)NC(=O)[C@H](Cc2c[nH]c3ccccc23)NC(=O)[C@H](CC(N)=O)NC(=O)[C@H](CCCNC(=N)N)NC(=O)[C@H](CC(=O)O)NC(=O)[C@H](CC(C)C)NC(=O)[C@H](CCCNC(=N)N)NC(=O)[C@H](Cc2ccc(O)cc2)NC(=O)[C@H](CCCCN)NC(=O)[C@H](Cc2c[nH]c3ccccc23)NC(=O)[C@H](C(C)C)NC1=O` (Ac-MCVWKYRLDRNWYCGSGSDYKDDDDK-NH2; disulfide 2-14), for which the Kd – broadly, the concentration at which binding is half-saturated – in assay [1] was 2.04 µM; in assay [2], more than 10 µM; in assay [3] it was 0.078 µM.

Turning to `CSCC[C@H](NC(C)=O)C(=O)N[C@H]1CSSC[C@@H](C(=O)NCC(=O)N[C@@H](CO)C(=O)NCC(=O)N[C@@H](CO)C(=O)N[C@@H](CCC(=O)O)C(=O)N[C@@H](CCC(=O)O)C(=O)NCC(=O)N[C@@H](CO)C(=O)NCC(=O)N[C@@H](CO)C(=O)N[C@@H](CC(=O)O)C(=O)N[C@@H](Cc2ccc(O)cc2)C(=O)N[C@@H](CCCCN)C(=O)N[C@@H](CC(=O)O)C(=O)N[C@@H](CC(=O)O)C(=O)N[C@@H](CC(=O)O)C(=O)N[C@@H](CC(=O)O)C(=O)N[C@@H](CCCCN)C(N)=O)NC(=O)[C@H](CCCNC(=N)N)NC(=O)[C@H](CCC(N)=O)NC(=O)[C@H](Cc2c[nH]cn2)NC(=O)[C@H](Cc2c[nH]c3ccccc23)NC(=O)[C@H](CC(C)C)NC(=O)[C@H](CCCCN)NC(=O)[C@H](Cc2c[nH]c3ccccc23)NC(=O)[C@H](Cc2ccc(O)cc2)NC(=O)[C@H](Cc2ccccc2)NC(=O)[C@H](CC(C)C)NC(=O)[C@H](Cc2c[nH]cn2)NC(=O)[C@H](CCCNC(=N)N)NC1=O` (Ac-MCRHLFYWKLWHQRCGSGSEEGSGSDYKDDDDK-NH2; disulfide 2-15), the Kd in assay [1] was 0.002 µM; in assay [2], more than 10 µM; in assay [3], more than 10 µM.

In the case of `CSCC[C@H](NC(C)=O)C(=O)N[C@H]1CSSC[C@@H](C(=O)NCC(=O)N[C@@H](CO)C(=O)NCC(=O)N[C@@H](CO)C(=O)N[C@@H](CC(=O)O)C(=O)N[C@@H](Cc2ccc(O)cc2)C(=O)N[C@@H](CCCCN)C(=O)N[C@@H](CC(=O)O)C(=O)N[C@@H](CC(=O)O)C(=O)N[C@@H](CC(=O)O)C(=O)N[C@@H](CC(=O)O)C(=O)N[C@@H](CCCCN)C(N)=O)NC(=O)[C@H](Cc2c[nH]cn2)NC(=O)[C@H](CC(C)C)NC(=O)[C@H](Cc2ccc(O)cc2)NC(=O)[C@H](CC(C)C)NC(=O)[C@H](CCC(=O)O)NC(=O)[C@H](CCC(=O)O)NC(=O)[C@H](Cc2ccccc2)NC(=O)[C@H](CC(C)C)NC(=O)[C@H](Cc2ccccc2)NC(=O)[C@H](CCC(=O)O)NC(=O)[C@H](Cc2ccc(O)cc2)NC(=O)[C@H]([C@@H](C)O)NC1=O` (Ac-MCTYEFLFEELYLHCGSGSDYKDDDDK-NH2; disulfide 2-15), the Kd in assay [1], in assay [2] and in assay [3] was more than 10 µM throughout.

Regarding `CSCC[C@H](NC(C)=O)C(=O)N[C@H]1CSSC[C@@H](C(=O)NCC(=O)N[C@@H](CO)C(=O)NCC(=O)N[C@@H](CO)C(=O)N[C@@H](CC(=O)O)C(=O)N[C@@H](Cc2ccc(O)cc2)C(=O)N[C@@H](CCCCN)C(=O)N[C@@H](CC(=O)O)C(=O)N[C@@H](CC(=O)O)C(=O)N[C@@H](CC(=O)O)C(=O)N[C@@H](CC(=O)O)C(=O)N[C@@H](CCCCN)C(N)=O)NC(=O)[C@H](CCC(N)=O)NC(=O)[C@H](CCC(=O)O)NC(=O)[C@H](Cc2c[nH]c3ccccc23)NC(=O)[C@H](Cc2c[nH]cn2)NC(=O)CNC(=O)[C@H](Cc2ccc(O)cc2)NC(=O)[C@@H]2CCCN2C(=O)[C@H](Cc2c[nH]cn2)NC(=O)[C@H](CCCNC(=N)N)NC(=O)[C@H](Cc2c[nH]cn2)NC(=O)[C@H](CCC(=O)O)NC1=O` (Ac-MCEHRHPYGHWEQCGSGSDYKDDDDK-NH2; disulfide 2-14), the Kd in assay [1], in assay [2] and in assay [3] was more than 10 µM each time.

`CC[C@H](C)[C@@H]1NC(=O)[C@H](CC(N)=O)NC(=O)[C@H](Cc2ccc(O)cc2)NC(=O)[C@@H](NC(=O)[C@H](CCSC)NC(C)=O)CSSC[C@@H](C(=O)NCC(=O)N[C@@H](CO)C(=O)NCC(=O)N[C@@H](CO)C(=O)N[C@@H](CC(=O)O)C(=O)N[C@@H](Cc2ccc(O)cc2)C(=O)N[C@@H](CCCCN)C(=O)N[C@@H](CC(=O)O)C(=O)N[C@@H](CC(=O)O)C(=O)N[C@@H](CC(=O)O)C(=O)N[C@@H](CC(=O)O)C(=O)N[C@@H](CCCCN)C(N)=O)NC(=O)[C@H](CCC(=O)O)NC(=O)[C@H](CCCNC(=N)N)NC(=O)[C@H](CCCNC(=N)N)NC(=O)[C@H](C(C)C)NC(=O)[C@H](Cc2ccc(O)cc2)NC(=O)[C@H](CCCCN)NC(=O)[C@H](Cc2ccc(O)cc2)NC(=O)[C@H](Cc2c[nH]c3ccccc23)NC(=O)[C@H](Cc2ccc(O)cc2)NC1=O` (Ac-MCYNIYWYKYVRRECGSGSDYKDDDDK-NH2; disulfide 2-15): the Kd was 0.001 µM in assay [1], more than 10 µM in assay [2] and 0.387 µM in assay [3].

In the case of `CSCC[C@H](NC(C)=O)C(=O)N[C@H]1CSSC[C@@H](C(=O)NCC(=O)N[C@@H](CO)C(=O)NCC(=O)N[C@@H](CO)C(=O)N[C@@H](CCC(=O)O)C(=O)N[C@@H](CCC(=O)O)C(=O)NCC(=O)N[C@@H](CO)C(=O)NCC(=O)N[C@@H](CO)C(=O)N[C@@H](CC(=O)O)C(=O)N[C@@H](Cc2ccc(O)cc2)C(=O)N[C@@H](CCCCN)C(=O)N[C@@H](CC(=O)O)C(=O)N[C@@H](CC(=O)O)C(=O)N[C@@H](CC(=O)O)C(=O)N[C@@H](CC(=O)O)C(=O)N[C@@H](CCCCN)C(N)=O)NC(=O)[C@H](Cc2c[nH]cn2)NC(=O)[C@H](Cc2ccccc2)NC(=O)[C@H](CC(C)C)NC(=O)[C@H](CCCCN)NC(=O)[C@H](Cc2c[nH]c3ccccc23)NC(=O)[C@H](Cc2ccc(O)cc2)NC(=O)[C@H](Cc2ccc(O)cc2)NC(=O)[C@H](CC(C)C)NC(=O)[C@H](Cc2c[nH]cn2)NC(=O)[C@H](CCCNC(=N)N)NC(=O)CNC(=O)[C@H]([C@@H](C)O)NC1=O` (Ac-MCTGRHLYYWKLFHCGSGSEEGSGSDYKDDDDK-NH2; disulfide 2-15), the Kd is 0.01 µM in assay [1], more than 10 µM in assay [2] and more than 10 µM in assay [3].

As to `CC[C@H](C)[C@@H]1NC(=O)[C@H](CC(C)C)NC(=O)[C@H](Cc2ccc(O)cc2)NC(=O)[C@H](Cc2c[nH]cn2)NC(=O)[C@H](Cc2c[nH]cn2)NC(=O)CNC(=O)[C@H](CC(C)C)NC(=O)[C@H](C(C)C)NC(=O)[C@H](Cc2ccccc2)NC(=O)[C@H](CC(=O)O)NC(=O)[C@H](Cc2ccc(O)cc2)NC(=O)[C@H]([C@@H](C)O)NC(=O)[C@@H](NC(=O)[C@H](CCSC)NC(C)=O)CSSC[C@@H](C(=O)NCC(=O)N[C@@H](CO)C(=O)NCC(=O)N[C@@H](CO)C(=O)N[C@@H](CC(=O)O)C(=O)N[C@@H](Cc2ccc(O)cc2)C(=O)N[C@@H](CCCCN)C(=O)N[C@@H](CC(=O)O)C(=O)N[C@@H](CC(=O)O)C(=O)N[C@@H](CC(=O)O)C(=O)N[C@@H](CC(=O)O)C(=O)N[C@@H](CCCCN)C(N)=O)NC1=O` (Ac-MCTYDFVLGHHYLICGSGSDYKDDDDK-NH2; disulfide 2-15), the Kd in assay [1], in assay [2] and in assay [3] was more than 10 µM in each case.
